The text below walks through data of publication PMC7853623, “Dose- and time-dependent tolerability and efficacy of organo-osmium complex FY26 and its tissue pharmacokinetics in hepatocarcinoma-bearing mice” (Metallomics: Integrated Biometal Science, 2020).

Data set [1] can be described thus: Tolerability (survival, body weight) in Hepa1–6-bearing C57Bl/6 mice (Experiments 3 and 4). The class given is in vivo. The method, then: Male CD1-Foxn1^nu or C57Bl/6 (B6) mice aged 5–10 weeks (Janvier, Le Genest St Isle, France) were housed in groups of three to four mice per cage in temperature-controlled (23 ± 1°C), ventilated (100 ± 10 l/min), and light-tight chronobiological animal facilities (Eurobioconcept, Bonneuil s/Marne, France). They were synchronized with an alternation of 12 h of light (L) and 12 h of darkness (D) (LD12:12), with light starting at 07:00, and had ad libitum access to food and water throughout all the experiments. In line with convention, onset of light and that of darkness are referred to as Zeitgeber time 0 (ZT0) and ZT12, respectively. After one or more weeks on this regimen and on the day prior to tumour inoculation, both flanks of each B6 mouse were shaved using clippers.
The mice, aged 8–10 weeks, were anesthetized under isoflurane and Hepa1–6-Per2-luc cells were injected subcutaneously in both postero-lateral flanks of each mouse. Mice were then inspected and weighed daily until experiment completion. Tumour sites were inspected daily until tumours became palpable and amenable to daily measurements of perpendicular diameters using callipers. Measurements were always taken at the same circadian time.
Mean daily tumour weight per mouse was calculated as the average volume of the right and left flank tumours according to (L × W^2)/2, where L is the larger and W the smaller perpendicular diameter, and 1 cm^3 corresponds to 1 g. Mice with an estimated tumour weight exceeding 10% of their body weight or those in poor general condition or loosing >15% of their starting body weight were euthanized, in compliance with our Home Office Project Licence specifications approved by the Animals in Science Committee and Animal Welfare and Ethical Review Body.
Experiment 3 aimed at assessing the efficacy and tolerability of the more soluble formulation of FY26⋅Cl in Hepa1–6-bearing C57Bl/6 mice. The mice were randomized to receive vehicle or FY26⋅Cl, at a cumulative dose of 60 mg/kg. Treated mice received ip injections of 20 mg/kg of FY26⋅Cl at ZT6 12, 14, and 17 days after tumour inoculation. Control mice received ip vehicle on the same days.
Experiment 4 aimed at confirming efficacy and optimizing timing and scheduling of the same cumulative dose of 60 mg/kg of FY26⋅Cl. Mice were randomized to receive either vehicle or FY26⋅Cl as four injections of 15 mg/kg at ZT6 or ZT18 on days 11, 14, 17, and 21.
(§1) For Experiments 1 and 2, FY26⋅PF6 was diluted in the vehicle, composed of 1% Tween 80 (Sigma-Aldrich, Gillingham, UK), 5% DMSO (Corning, New York, USA) and 94% of 0.9% saline (Prep room, Life Sciences, University of Warwick) under laminar flow. FY26⋅PF6 concentration was confirmed with ICP-MS. For Experiments 3–5, using FY26⋅Cl, a stock solution of 50 mg/ml FY26⋅Cl was prepared in 0.9% saline on the day of injection and diluted as required; the vehicle consisted of 0.9% saline.
Body weight data were expressed as % body weight measured on the first treatment day. Tumour weights for individually treated mice were expressed as % of the median control values, in order to determine % inhibition. Mean and standard error or median and interquartiles were computed for the different treatment groups and experimental conditions, i.e. drug timing and day of assessment. Groups were compared using parametric or non-parametric ANOVAs, respectively.

The nature of data set [2]: Comparative maximum aqueous solubility study (ICP-OES). The data set is classed as physicochemical. The following applies: doubly deionized water, 24 h shaking, ambient 18–20°C, mean ± SD of N = 3. The method, then: One to five milligrams of FY26⋅PF6 or FY26⋅I, and 180 mg of FY26⋅Cl were dispensed into Falcon tubes in triplicates, then 1 ml of doubly deionized water (DDIW) was added. The Falcon tubes were placed on a Vibrax VXB basic shaker (Sigma-Aldrich, Dorset, UK) for 24 h at a speed of […] (ambient temperature 18–20°C), and were checked at intervals (further solids were added if total saturation appeared to occur). The samples were filtered through syringe filters (PTFE, 0.45 µm, 4 mm) to remove any undissolved solids. The concentrations of Os in the solutions were measured using inductively coupled plasma-optical emission spectroscopy (ICP-OES) (Agilent, Stockport, UK).
Analyses of FY26 solutions were carried out on a Perkin-Elmer (optical emission spectrometer) Optima 5300 DV instrument. All samples and standards were prepared fresh on the day in DDIW with distilled HNO3 (3.2%), thiourea (5 mM), and ascorbic acid (0.1 g/l). The osmium standard was diluted to the following concentrations for the calibration curve: 0, 25, 50, 100, 200, 400, 600, 800, and 1000 ppb. The samples were diluted by serial dilutions of typically 1 in 10 until their concentrations fitted within the calibration range and % total dissolved solids were below 0.2%. Samples were prepared in triplicates and the Os optical emissions at 228.226 and 225.585 nm were detected and integrated.

The nature of data set [3]: Tumour and liver osmium uptake after a single ip dose (Experiment 5, ICP-MS). The data set is classed as in vivo, C57Bl/6 mice. The method, then: Experiment 5 determined FY26⋅Cl uptake in mouse tumour and liver. Hepa1–6-bearing mice were randomly assigned to either treatment or control groups. They received a single ip injection of 5, 10, or 20 mg/kg of FY26⋅Cl or 0.1 M PBS (vehicle) at ZT6 (Table 1). The mice from pre-set subgroups were culled at 6, 24, or 48 h after injection. The subcutaneous tumours in both flanks, as well as liver, spleen, one kidney, an ileum, and a colon segment and brain were sampled and stored at −80°C.
as §1
Liver tissue was homogenized by manual mechanical grinding (pestle and mortar) while frozen under liquid N2. Once thawed, ∼90–110 mg of homogenized tissue was pipetted into microwave reaction vessels (10 ml), and tetramethylammonium hydroxide (TMAH, 25% m/v, 2 ml) was added. Tumour tissue was not homogenized and instead digested as whole tissue. It was weighed directly into microwave vials and TMAH was added (100 µl per 5 mg tissue, minimum of 500 µl added). The samples were digested via microwave irradiation (CEM SP-D Discover® microwave reactor, ≥300 W, ≥450 psi) at 200°C for 10 min. Digested samples were diluted in one part DDIW, and then centrifuged at 9000 rpm for 10 min at 20°C. The final analytical samples were prepared by a further 1 in 12.5 dilution in DDIW (total dilution of 1 in 25), ensuring a final TMAH concentration of 1% and total dissolved solids <0.1% […]. TMAH digestion was selected to circumvent the formation of volatile Os species with nitric acid.
Analyses of digested tissue samples were carried out on an Agilent Technologies ICP-MS 7900 spectrometer in a basic aqueous matrix of TMAH (1%, m/v). The osmium concentrations were determined via isotopic detection of ^189Os in gas (He) and no-gas modes, and samples were referenced internally to ^100Ru (10 ppb). A concentration calibration curve was produced by serial dilutions of an osmium standard (1000 ppm) in 1% TMAH: 0, 0.1, 0.25, 0.5, 1, 2.5, 5, 10, 25, 50, 100, 250, 500, and 1000 ppb.

As for `CN(C)c1ccc(N=Nc2ccccn2)cc1.Cc1ccc(C(C)C)cc1.[Cl-].[I-].[Os+2]` [FY26⋅Cl], the “treated mice alive at completion” value in data set [1] (Experiment 4, 15 mg/kg ip × 4, ZT6 and ZT18) was determined as 45%. In data set [1] (after a cumulative dose of 60 mg/kg), the “loss of body weight before treatment” value was ~10% (±3.2%). The maximum aqueous solubility in data set [2] was 215 (±10) mM. Besides, the “liver [Os] levels at 6 h relative to 20 or 10 mg/kg” value in data set [3] (5 mg/kg single ip, 6 h) was “nearly halved”. Besides, the “liver [Os] levels over time” value in data set [3] (20 mg/kg single ip) is listed as “remained almost constant until 48 h”. The “tumour [Os] levels over time” value is “remained almost constant over time” in data set [3] (20 mg/kg single ip, 6, 24 and 48 h); “decreased at 24 h and slightly increased at 48 h” in data set [3] (10 and 5 mg/kg single ip, tumours of both flanks). Moreover, the “liver [Os] concentrations over time” value in data set [3] (10 and 5 mg/kg single ip) was “decreased sharply at 24 h and remained stable until 48 h”. For the same compound, the “tumour uptake as compared to liver (less)” value in data set [3] (6 h post-treatment, single ip dose at ZT6, both tumours) is given as around 10 fold.
